Measured values reported in patent US8962671B2, “Amino-substituted 3-heteroaroylamino-propionic acid derivatives and their use as pharmaceuticals” (Sanofi, priority 2011, dated 2015).

Molecular target: T1, Recombinant human cathepsin A (Homo sapiens, UniProt P10619)
T1 construct: Recombinant human cathepsin A (residues 29-480, with a C-terminal 10-His tag); 10-His (C); purchased R&D Systems 1049-SE
T1 sequence (P10619 29-326 limits assumed): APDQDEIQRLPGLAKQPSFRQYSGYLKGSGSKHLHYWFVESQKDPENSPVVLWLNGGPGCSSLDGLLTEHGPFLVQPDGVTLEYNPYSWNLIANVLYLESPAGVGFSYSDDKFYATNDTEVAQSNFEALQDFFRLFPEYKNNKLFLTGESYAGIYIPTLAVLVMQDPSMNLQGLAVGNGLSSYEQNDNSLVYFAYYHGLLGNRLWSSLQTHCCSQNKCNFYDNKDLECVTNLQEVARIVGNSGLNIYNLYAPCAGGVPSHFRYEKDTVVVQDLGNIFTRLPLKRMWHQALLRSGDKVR
T1 sequence (P10619 327-480 limits assumed): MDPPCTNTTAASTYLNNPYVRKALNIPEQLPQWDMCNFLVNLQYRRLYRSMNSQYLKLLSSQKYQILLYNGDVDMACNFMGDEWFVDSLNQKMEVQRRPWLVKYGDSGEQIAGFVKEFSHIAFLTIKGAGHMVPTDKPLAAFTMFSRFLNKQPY
Assay: Cathepsin A inhibitory activity
Format: biochemical
Conditions: activated recombinant human cathepsin A 833 ng/ml, Bodipy FL-labeled bradykinin 2 μM, pH 5.5, 15 min room temperature
Description: a) Cathepsin a Inhibitory Activity
Recombinant human cathepsin A (residues 29-480, with a C-terminal 10-His tag; R&D Systems, #1049-SE) was proteolytically activated with recombinant human cathepsin L (R&D Systems, #952-CY). Briefly, cathepsin A was incubated at 10 μg/ml with cathepsin L at 1 μg/ml in activation buffer (25 mM 2-(morpholin-4-yl)-ethanesulfonic acid (MES), pH 6.0, containing 5 mM dithiothreitol (DTT)) for 15 min at 37° C. Cathepsin L activity was then stopped by the addition of the cysteine protease inhibitor E-64 (N-(trans-epoxysuccinyl)-L-leucine-4-guanidinobutylamide; Sigma-Aldrich, #E3132; dissolved in activation buffer/DMSO) to a final concentration of 10 μM.
The activated cathepsin A was diluted in assay buffer (25 mM MES, pH 5.5, containing 5 mM DTT) and mixed with the test compound (dissolved in assay buffer containing (v/v) 3% DMSO) or, in the control experiments, with the vehicle in a multiple assay plate. After incubation for 15 min at room temperature, as substrate then bradykinin carrying an N-Terminal®Bodipy FL (4,4-difluoro-5,7-dimethyl-4-bora-3a,4a-diaza-s-indacene-3-propionyl) label (JPT Peptide Technologies GmbH; dissolved in assay buffer) was added to the mixture. The final concentration of cathepsin A was 833 ng/ml and the final concentration of labeled bradykinin 2 μM. After incubation for 15 min at room temperature the reaction was stopped by the addition of stop buffer (130 mM 2-(4-(2-hydroxy-ethyl)-piperazin-1-yl)-ethanesulfonic acid, pH 7.4, containing (v/v) 0.013%®Triton X-100, 0.13% Coating Reagent 3 (Caliper Life Sciences), 6.5% DMSO and 20 μM ebelactone B (Sigma, #E0886)).
Uncleaved substrate and product were then separated by a microfluidic capillary electrophoresis on a LabChip® 3000 Drug Discovery System (12-Sipper-Chip; Caliper Life Sciences) and quantified by determination of the respective peak areas. Substrate turnover was calculated by dividing product peak area by the sum of substrate and product peak areas, and the enzyme activity and the inhibitory effect of the test compound thus quantified. From the percentage of inhibition of cathepsin A activity observed with the test compound at several concentrations, the inhibitory concentration IC50, i.e. the concentration which effects 50% inhibition of enzyme activity was, calculated.

For `Cc1ccccc1[C@H](CC(=O)O)NC(=O)c1cc(NC(=O)CO[C@@H]2C[C@H](C)CC[C@H]2C(C)C)n(-c2ccccc2)n1` [Example 68, (S)-3-({5-[2-((1R,2S,5R)-2-Isopropyl-5-methyl-cyclohexyloxy)-acetylamino]-1-phenyl-1H-pyrazole-3-carbonyl}-amino)-3-o-tolyl-propionic acid], which IC50 is on record?
The IC50 was 1780 nM.

With `Cc1ccccc1[C@H](CC(=O)O)NC(=O)c1cc(NC(=O)C(c2ccccc2)c2ccccc2)n(-c2ccccc2)n1` [Example 69, (S)-3-[(5-Diphenylacetylamino-1-phenyl-1H-pyrazole-3-carbonyl)-amino]-3-o-tolyl-propionic acid] as the compound, how does the IC50 read?
The IC50 was 125 nM.

With `CN(C(=O)c1ccccc1)c1cc(C(=O)N[C@@H](CC(=O)O)c2ccccc2Cl)nn1-c1ccccc1` [Example 70, (S)-3-{[5-(Benzoyl-methyl-amino)-1-phenyl-1H-pyrazole-3-carbonyl]-amino}-3-(2-chloro-phenyl)-propionic acid] as the compound, how does the IC50 read?
The IC50 was 5.7 nM.

With `CN(C(=O)c1ccccc1)c1cc(C(=O)N[C@@H](CC(=O)O)c2cccc(Cl)c2)nn1-c1ccccc1` [Example 71, (S)-3-{[5-(Benzoyl-methyl-amino)-1-phenyl-1H-pyrazole-3-carbonyl]-amino}-3-(3-chloro-phenyl)-propionic acid] as the compound, how does the IC50 read?
The IC50 was 56.7 nM.

Which IC50 does the source give for `Cc1ccc([C@H](CC(=O)O)NC(=O)c2cc(N(C)C(=O)c3ccccc3)n(-c3ccccc3)n2)cc1` [Example 72, (S)-3-{[5-(Benzoyl-methyl-amino)-1-phenyl-1H-pyrazole-3-carbonyl]-amino}-3-p-tolyl-propionic acid] here?
The IC50 was 102 nM.

For `O=C(O)CC(NC(=O)c1cc(NC(=O)c2ccccc2)n(-c2ccccc2)n1)C1CCCCC1` (stereo not shown) [Example 74, 3-[(5-Benzoylamino-1-phenyl-1H-pyrazole-3-carbonyl)-amino]-3-cyclohexyl-propionic acid], which IC50 is on record?
Its IC50 is 78.6 nM.

Which IC50 does the source give for `O=C(O)CC(Cc1ccccc1)NC(=O)c1cc(NC(=O)c2ccccc2)n(-c2ccccc2)n1` (stereo not shown) [Example 75, 3-[(5-Benzoylamino-1-phenyl-1H-pyrazole-3-carbonyl)-amino]-4-phenyl-butyric acid] here?
Its IC50 is 370 nM.

Which IC50 does the source give for `CC(C)C[C@@H](CC(=O)O)NC(=O)c1cc(NC(=O)c2ccccc2)n(-c2ccccc2)n1` [Example 76, (S)-3-[(5-Benzoylamino-1-phenyl-1H-pyrazole-3-carbonyl)-amino]-5-methyl-hexanoic acid] here?
Its IC50 is 22000 nM.

For `O=C(O)CC1(NC(=O)c2cc(NC(=O)c3ccccc3)n(-c3ccccc3)n2)CCCC1` [Example 77, {1-[(5-Benzoylamino-1-phenyl-1H-pyrazole-3-carbonyl)-amino]-cyclopentyl}-acetic acid], which IC50 is on record?
Its IC50 is 73.4 nM.

Which IC50 does the source give for `O=C(O)C[C@H](NC(=O)c1cc(NC(=O)c2ccccc2)n(-c2ccccc2)n1)c1ccc(F)cc1` [Example 78, (S)-3-[(5-Benzoylamino-1-phenyl-1H-pyrazole-3-carbonyl)-amino]-3-(4-fluoro-phenyl)-propionic acid] here?
The IC50 was 34.1 nM.

Which IC50 does the source give for `Cc1ccc([C@H](CC(=O)O)NC(=O)c2cc(NC(=O)c3ccccc3)n(-c3ccccc3)n2)c(C)c1` [Example 79, (S)-3-[(5-Benzoylamino-1-phenyl-1H-pyrazole-3-carbonyl)-amino]-3-(2,4-dimethyl-phenyl)-propionic acid] here?
The IC50 was 108 nM.

With `O=C(Nc1cc(C(=O)NCC(C(=O)O)c2ccccc2)nn1-c1ccccc1)c1ccccc1` (stereo not shown) [Example 82, 3-[(5-Benzoylamino-1-phenyl-1H-pyrazole-3-carbonyl)-amino]-2-phenyl-propionic acid] as the compound, how does the IC50 read?
The IC50 was 4870 nM.

Which IC50 does the source give for `O=C(O)C[C@H](NC(=O)c1cc(NC(=O)c2ccccc2)n(-c2ccccc2)n1)c1ccccc1F` [Example 83, (S)-3-[(5-Benzoylamino-1-phenyl-1H-pyrazole-3-carbonyl)-amino]-3-(2-fluoro-phenyl)-propionic acid] here?
Its IC50 is 147 nM.

Which IC50 does the source give for `O=C(O)C[C@H](NC(=O)c1cc(NC(=O)c2ccccc2)n(-c2ccccc2)n1)c1ccccc1C(F)(F)F` [Example 84, (S)-3-[(5-Benzoylamino-1-phenyl-1H-pyrazole-3-carbonyl)-amino]-3-(2-trifluoromethyl-phenyl)-propionic acid] here?
Its IC50 is 386 nM.

For `CCNc1cc(C(=O)N[C@@H](CC(=O)O)c2ccccc2C)nn1-c1ccccc1` [Example 85, (S)-3-[(5-Ethylamino-1-phenyl-1H-pyrazole-3-carbonyl)-amino]-3-o-tolyl-propionic acid], which IC50 is on record?
The IC50 was 80.2 nM.

System: platelet aggregation
Assay: not given
Conditions: hypertensive animals; H. Ostrowska et al., J. Cardiovasc. Pharmacol. 45 (2005); cited from earlier work

Which platelet aggregation does the source give for `CC[C@@H](C)[C@@H](O)[C@H](C)C(=O)[C@H](C)/C=C(\C)C[C@H](C)[C@@H]1OC(=O)[C@H]1CC` [ebelactone B] here?
The platelet aggregation was “suppresses platelet aggregation”.
